Data published in ChEMBL document CHEMBL1201862, “PubChem BioAssay data set” (2004).
Values belong to the compound of their own block, whether it stands above or below them. Activity calls are given as the source filed them.

Assays:
[1] = cells; type: functional, cell-based
[2] = molecular target: T1, Trace amine-associated receptor 1 (Homo sapiens, UniProt Q96RJ0); experiment: Fluorescence-based cell-based high throughput dose response assay to identify agonists of the human trace amine associated receptor 1 (TAAR1).; type: functional
T1 sequence (Q96RJ0 whole entry): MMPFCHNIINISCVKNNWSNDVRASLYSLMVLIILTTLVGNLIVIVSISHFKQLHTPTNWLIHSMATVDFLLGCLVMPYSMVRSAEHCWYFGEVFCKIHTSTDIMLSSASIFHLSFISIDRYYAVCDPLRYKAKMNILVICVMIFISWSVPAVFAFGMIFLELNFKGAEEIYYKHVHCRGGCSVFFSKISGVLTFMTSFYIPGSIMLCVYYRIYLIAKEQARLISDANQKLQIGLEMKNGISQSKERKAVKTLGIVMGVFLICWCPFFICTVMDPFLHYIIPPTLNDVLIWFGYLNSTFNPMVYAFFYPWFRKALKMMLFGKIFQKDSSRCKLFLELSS

[3] = molecular target: T2, Heat shock factor protein 1 (Mus musculus, UniProt P38532); experiment: enhancement of HSF1-driven luciferase signal – cell-based, NIH3T3, luminescence, dose retest, confirmation (AID 435004); type: functional;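 note: stress induced by proteasome inhibitor MG132 added 30 min after compound; luciferase reporter driven by HSF1 response element in NIH3T3 cells; actives raise luminescence as potentiators of the MG132 stress response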
T2 sequence (P38532 whole entry): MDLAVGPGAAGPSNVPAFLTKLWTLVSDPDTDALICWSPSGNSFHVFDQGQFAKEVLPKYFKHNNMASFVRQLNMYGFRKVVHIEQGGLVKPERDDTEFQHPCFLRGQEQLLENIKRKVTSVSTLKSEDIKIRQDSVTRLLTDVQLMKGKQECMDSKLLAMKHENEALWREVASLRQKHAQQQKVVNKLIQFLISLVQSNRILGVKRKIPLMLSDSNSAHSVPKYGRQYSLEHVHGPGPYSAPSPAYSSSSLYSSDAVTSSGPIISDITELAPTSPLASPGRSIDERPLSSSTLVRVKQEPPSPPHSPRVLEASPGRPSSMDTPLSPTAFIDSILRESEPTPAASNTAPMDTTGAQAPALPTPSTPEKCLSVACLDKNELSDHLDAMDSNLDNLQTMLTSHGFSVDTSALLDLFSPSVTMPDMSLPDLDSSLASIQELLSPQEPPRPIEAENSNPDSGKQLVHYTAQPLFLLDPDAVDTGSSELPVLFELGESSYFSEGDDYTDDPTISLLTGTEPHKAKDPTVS

[4] = cells; type: functional, cell-based; remark: listed apart in the source
[5] = molecular target: T1, Trace amine-associated receptor 1; experiment: Counterscreen for agonists of the human trace amine associated receptor 1 (hTAAR1): Fluorescence-based cell-based high throughput dose response assay to identify hTAAR1 agonist that also desensitize TAAR1 receptor response.; type: functional
[6] = molecular target: Cytochrome P450 2C9 (Homo sapiens, UniProt P11712)
[7] = molecular target: Heat shock protein HSP 90-alpha (Homo sapiens, UniProt P07900); experiment: Luminescence-based dose response biochemical high throughput screening assay for inhibitors of the Heat Shock Protein 90 (HSP90). [Related pubchem assays: 1831 (Summary AID.), 1846 (Confirmation screen.), 1789 (Primary screen.)]
[8] = molecular target: T3, Polyadenylate-binding protein 1 (Homo sapiens, UniProt P11940); experiment: MLLE binding blockers, Cy5 peptide tracer – biochemical, fluorescence polarization, Cy5-PAM2 peptide, secondary, miRNA deadenylation inhibitor project, dose response (AID 602260); type: functional; conditions: read-out: IC50_Mean
[9] = molecular target: T3, Polyadenylate-binding protein 1; experiment: MLLE domain peptide-binding blockers, IC50 – biochemical, fluorescence polarization, FITC-PAM2 peptide, dose response (AID 602259); type: functional; conditions: read-out: IC50_Mean
[10] = viability loss in CEM21 cells – cell-based, CellTiter-Glo luminescence, cherry-picked, cytotoxicity control for viral fusion inhibitor project, dose response (AID 652042); type: functional;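 note: potency for signal decrease meaning cytotoxicity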
[11] = HIV-1 AD8 envelope cell-cell fusion blockers – cherry-pick, dose response (AID 652062); type: functional, cell-based;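 note: luciferase signal from cell-cell fusion driven by HIV-1 clade B AD8 Env; potency is for inhibitors of fusion seen as a drop in luminescence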
[12] = off-target signal loss in HeLa-CEM21 co-culture – HeLa F-luc CTL cells, cherry-picked, counter-screen for HIV-1 Env fusion inhibitor project, dose response (AID 652040); type: functional, cell-based;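 note: potency for signal decrease marking cytotoxic or nonspecific inhibition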
[13] = molecular target: COUP transcription factor 2 (Homo sapiens, UniProt P24468); experiment: Luminescence-based cell-based high throughput dose response assay to identify inhibitors of COUP-TFII (NR2F2).; type: functional;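 note: HEK293 cells transiently cotransfected with COUP-TFII expression vector and reporter; luciferase reporter luminescence driven by COUP-TFII from the pX2-168 reporter plasmid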
[14] = PAX8-dependent cell viability loss – plate reader, dry powder, dose response (AID 743049); type: functional, cell-based
[15] = COV434 cell viability loss – plate reader, dry powder, SA7, cytotoxicity control for PAX8 inhibitor project, dose response (AID 743145); type: functional, cell-based
[16] = inhibitors acting on PAX2 in cells – cell-based, plate reader, dry powder samples, selectivity assay for PAX8 inhibitor project, dose response (AID 743048); type: functional;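 note: HEK293 cells carrying a WT1 promoter luciferase reporter driven by expressed Pax2; potency is for inhibition of Pax2 driven reporter signal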
[17] = COV362 cell viability loss – plate reader, dry powder, SA12, cytotoxicity control for PAX8 inhibitor project, dose response (AID 743144); type: functional, cell-based
[18] = PAX5 cellular inhibition readout – cell-based, plate reader, dry powder samples, selectivity assay for PAX8 inhibitor project, dose response (AID 743047); type: functional;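 note: HEK293 cells carrying a Pax5 driven CD19 promoter luciferase reporter; potency of inhibitors that lower reporter luminescence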
[19] = molecular target: Paired box protein Pax-8 (Homo sapiens, UniProt Q06710); experiment: PAX8 transcriptional activity inhibition in RMG-I – RMG-I cells, luciferase, cherry-pick, dose response (AID 687027); type: functional, cell-based;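 note: luciferase reporter driven by Pax8 target thyroperoxidase promoter measured by SteadyGlo luminescence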
[20] = T. cruzi growth inhibition in host cells, dose response, cell-based, plate reader, dry powder, set 2 (AID 652275); type: functional
[21] = blockers of HIV-1 envelope-mediated cell-cell fusion – cherry-pick, dose response (AID 652057); type: functional, cell-based
[22] = molecular target: FAD-linked sulfhydryl oxidase ALR (Homo sapiens, UniProt P55789); experiment: ALR-catalysed DTT oxidation blockers – biochemical, H2O2 detection, luminescence, cherry-pick, dose response (AID 493248)
[23] = molecular target: Albumin (Bos taurus, UniProt P02769); experiment: Counterscreen for inhibitors of T-cell receptor (TCR)-CD3 interaction: Fluorescence-based biochemical high throughput dose response assay to identify inhibitors of T-cell receptor (TCR)-CD3 interaction using a TAMRA-labeled BSA probe.; type: functional
Sequence of Albumin (P02769 whole entry): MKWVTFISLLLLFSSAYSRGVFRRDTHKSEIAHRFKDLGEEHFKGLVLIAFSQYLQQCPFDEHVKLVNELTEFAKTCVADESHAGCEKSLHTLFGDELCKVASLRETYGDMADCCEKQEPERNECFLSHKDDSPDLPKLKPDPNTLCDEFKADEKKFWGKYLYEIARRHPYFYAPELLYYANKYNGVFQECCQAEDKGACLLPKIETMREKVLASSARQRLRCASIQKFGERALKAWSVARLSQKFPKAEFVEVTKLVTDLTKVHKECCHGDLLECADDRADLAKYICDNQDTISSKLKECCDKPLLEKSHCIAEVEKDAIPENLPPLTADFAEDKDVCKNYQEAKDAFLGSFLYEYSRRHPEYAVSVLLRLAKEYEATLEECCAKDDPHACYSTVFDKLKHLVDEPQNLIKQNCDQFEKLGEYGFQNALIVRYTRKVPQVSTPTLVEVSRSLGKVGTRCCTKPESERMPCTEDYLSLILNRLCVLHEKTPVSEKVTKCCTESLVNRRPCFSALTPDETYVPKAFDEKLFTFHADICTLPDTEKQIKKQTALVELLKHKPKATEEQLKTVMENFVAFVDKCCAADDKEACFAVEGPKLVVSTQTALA

Sequence of Cytochrome P450 2C9 (P11712 whole entry): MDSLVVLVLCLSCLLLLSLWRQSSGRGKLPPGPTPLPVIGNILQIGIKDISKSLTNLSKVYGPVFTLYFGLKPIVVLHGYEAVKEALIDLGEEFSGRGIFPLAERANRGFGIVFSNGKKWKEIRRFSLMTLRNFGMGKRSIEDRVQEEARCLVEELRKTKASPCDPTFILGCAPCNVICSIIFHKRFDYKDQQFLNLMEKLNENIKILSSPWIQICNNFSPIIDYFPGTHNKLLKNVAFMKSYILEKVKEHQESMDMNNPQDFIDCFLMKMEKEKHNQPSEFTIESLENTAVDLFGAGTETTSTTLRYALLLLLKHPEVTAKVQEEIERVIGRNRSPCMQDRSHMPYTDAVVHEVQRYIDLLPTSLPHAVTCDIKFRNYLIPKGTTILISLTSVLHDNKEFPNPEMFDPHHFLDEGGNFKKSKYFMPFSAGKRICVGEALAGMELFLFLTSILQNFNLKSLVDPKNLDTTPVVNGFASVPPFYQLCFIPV
T3 sequence (P11940 whole entry, the tested form may be a part): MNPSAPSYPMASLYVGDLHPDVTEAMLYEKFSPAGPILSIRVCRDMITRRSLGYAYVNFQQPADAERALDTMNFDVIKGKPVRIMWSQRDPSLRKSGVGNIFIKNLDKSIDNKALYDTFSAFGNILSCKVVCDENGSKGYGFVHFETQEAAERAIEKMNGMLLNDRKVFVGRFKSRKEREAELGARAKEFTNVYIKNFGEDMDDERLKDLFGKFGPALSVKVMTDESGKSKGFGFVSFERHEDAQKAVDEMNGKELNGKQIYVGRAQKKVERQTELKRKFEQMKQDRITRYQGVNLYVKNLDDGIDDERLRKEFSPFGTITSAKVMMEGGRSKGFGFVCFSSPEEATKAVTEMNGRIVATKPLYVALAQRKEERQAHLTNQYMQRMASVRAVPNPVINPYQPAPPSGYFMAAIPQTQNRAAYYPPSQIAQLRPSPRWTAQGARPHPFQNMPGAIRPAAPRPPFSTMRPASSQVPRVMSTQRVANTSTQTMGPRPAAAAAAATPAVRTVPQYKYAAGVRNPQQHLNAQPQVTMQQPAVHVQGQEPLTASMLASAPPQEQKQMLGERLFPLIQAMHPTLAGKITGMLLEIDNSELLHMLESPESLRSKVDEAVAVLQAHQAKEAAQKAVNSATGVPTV
Sequence of COUP transcription factor 2 (P24468 whole entry): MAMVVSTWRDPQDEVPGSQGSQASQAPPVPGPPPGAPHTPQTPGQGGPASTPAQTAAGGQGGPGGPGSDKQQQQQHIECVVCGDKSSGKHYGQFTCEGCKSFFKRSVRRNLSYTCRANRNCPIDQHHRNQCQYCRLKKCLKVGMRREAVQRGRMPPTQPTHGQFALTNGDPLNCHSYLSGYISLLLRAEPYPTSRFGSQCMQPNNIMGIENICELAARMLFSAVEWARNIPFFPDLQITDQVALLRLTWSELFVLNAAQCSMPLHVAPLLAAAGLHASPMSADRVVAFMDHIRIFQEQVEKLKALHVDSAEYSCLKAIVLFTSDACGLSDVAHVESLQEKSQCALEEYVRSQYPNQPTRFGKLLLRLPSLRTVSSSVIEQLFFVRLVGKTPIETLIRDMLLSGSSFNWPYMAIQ
Sequence of FAD-linked sulfhydryl oxidase ALR (P55789 whole entry): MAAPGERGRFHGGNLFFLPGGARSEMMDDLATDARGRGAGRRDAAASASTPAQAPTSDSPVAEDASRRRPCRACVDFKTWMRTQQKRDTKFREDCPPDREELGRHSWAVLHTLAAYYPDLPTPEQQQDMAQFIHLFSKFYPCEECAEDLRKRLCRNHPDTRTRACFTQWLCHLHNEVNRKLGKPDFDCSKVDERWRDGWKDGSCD
Sequence of Paired box protein Pax-8 (Q06710 whole entry): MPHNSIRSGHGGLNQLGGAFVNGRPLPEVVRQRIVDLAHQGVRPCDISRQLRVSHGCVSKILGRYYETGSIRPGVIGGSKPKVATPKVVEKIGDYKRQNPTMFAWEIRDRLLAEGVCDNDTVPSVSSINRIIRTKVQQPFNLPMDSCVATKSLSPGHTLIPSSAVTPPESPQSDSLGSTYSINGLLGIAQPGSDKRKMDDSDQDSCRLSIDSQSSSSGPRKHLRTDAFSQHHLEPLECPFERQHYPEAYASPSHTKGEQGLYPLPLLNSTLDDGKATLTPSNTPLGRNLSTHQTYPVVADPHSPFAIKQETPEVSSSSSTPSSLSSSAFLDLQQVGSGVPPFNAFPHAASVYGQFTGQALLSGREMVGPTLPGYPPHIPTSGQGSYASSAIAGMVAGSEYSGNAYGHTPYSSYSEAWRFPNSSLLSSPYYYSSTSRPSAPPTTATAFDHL

Compound: Cc1c(CNCCc2ccccc2)c(C(=O)O)c(C)n1-c1ccccc1
IC50 [1]: > 29.9 µM (inactive)
EC50 [2]: 1.78 µM (active)
EC50 [3]: > 260 µM (inactive)
EC50 [4]: > 29.9 µM (inactive)
IC50 [5]: 8.17 µM (active)

AC50 [6]: 5.01 µM (inconclusive)
IC50 [7]: 4.53 µM (active)
IC50 [8]: > 66 µM (inactive)
IC50 [9]: > 66 µM (inactive)
Compound: CCN(CC)c1ccc(SS(=O)(=O)O)cc1

Compound: N#CCSc1nnc(-c2sc3ccccc3c2Cl)o1
AC50 [10]: 46.4 µM (active)
AC50 [11]: 6.32 µM (active)
AC50 [12]: > 70 µM (inactive)
IC50 [13]: 12 µM (inactive)

Compound: C[C@H](CO)N1C[C@H](C)[C@@H](CN(C)Cc2ccc(-c3ccccc3)cc2)Oc2ccc(NS(=O)(=O)c3ccccc3)cc2CC1=O
AC50 [14]: 30.4 µM (active)
AC50 [15]: 37.2 µM (active)
AC50 [16]: 8 µM (active)
AC50 [17]: 26.3 µM (active)
AC50 [18]: 14.8 µM (active)
AC50 [19]: 17.4 µM (active)

Compound: CN(C)C(=O)c1cccc(-c2ccc([C@H]3[C@@H](CO)N4CCCCN(C(=O)C5CCCC5)C[C@@H]34)cc2)c1
AC50 [20]: 0.691 µM (active)

Compound: CC(C)N1C[C@@H](CN(C)Cc2ccc(Cl)cc2)Oc2c(NC(=O)c3ccccc3)cccc2C1=O
AC50 [20]: 1.49 µM (active)

Compound: Cc1cccc(/C=N\Nc2cnnc(O)c2Cl)c1
IC50 [1]: > 29.9 µM (inactive)
EC50 [2]: 1.28 µM (active)
AC50 [6]: 28.2 µM (inconclusive)
AC50 [21]: 1.06 µM (active)
EC50 [4]: > 29.9 µM (inactive)
IC50 [5]: 7.33 µM (active)
AC50 [12]: 0.76 µM (active)

AC50 [22]: 4.94 µM (active)
IC50 [23]: > 94.3 µM (inactive)
Compound: COC(=O)c1cc(O)c(O)c(O)c1 [GALLIC ACID METHYL ESTER]
